From the supplement of paper PMC12420376

Legend:
Test in all cases: cell viability relative to untreated control (ex vivo patient spheroids); higher = less cytotoxic
Conditions in all cases: 72 h
Gem015 = system: Gem015 (ex vivo spheroids of an HRD-positive high-grade serous ovarian cancer)
Experimental: (§1)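 Ex vivo 3D spheroid cultures from dissociated tumours of HGSOC patients (DET3CT platform) were treated for 72 h with dose matrices of carboplatin combined with birinapant or vorinostat (nM). Live (TMRM) and dead (POPO-1) cells were imaged and viability was expressed as % of untreated control.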

Gem031 = system: Gem031 (ex vivo spheroids of an HRD-negative high-grade serous ovarian cancer)
Experimental: as §1

Gem059 = system: Gem059 (ex vivo spheroids of an HRD-negative high-grade serous ovarian cancer)
Experimental: as §1

Gem105 = system: Gem105 (ex vivo spheroids of an HRD-negative high-grade serous ovarian cancer)
Experimental: as §1

Gem129 = system: Gem129 (ex vivo spheroids of an HRD-positive high-grade serous ovarian cancer)
Experimental: as §1

[1] = carboplatin concentration 10 nM, partner drug concentration 0.1 nM
[2] = carboplatin concentration 10 nM, partner drug concentration 1 nM
[3] = carboplatin concentration 10 nM, partner drug concentration 10 nM
[4] = carboplatin concentration 10 nM, partner drug concentration 100 nM
[5] = carboplatin concentration 10 nM, partner drug concentration 1000 nM
[6] = carboplatin concentration 100 nM, partner drug concentration 0.1 nM
[7] = carboplatin concentration 100 nM, partner drug concentration 1 nM
[8] = carboplatin concentration 100 nM, partner drug concentration 10 nM
[9] = carboplatin concentration 100 nM, partner drug concentration 100 nM
[10] = carboplatin concentration 100 nM, partner drug concentration 1000 nM
[11] = carboplatin concentration 1000 nM, partner drug concentration 0.1 nM
[12] = carboplatin concentration 1000 nM, partner drug concentration 1 nM
[13] = carboplatin concentration 1000 nM, partner drug concentration 10 nM
[14] = carboplatin concentration 1000 nM, partner drug concentration 100 nM
[15] = carboplatin concentration 1000 nM, partner drug concentration 1000 nM
[16] = carboplatin concentration 10000 nM, partner drug concentration 0 nM
[17] = carboplatin concentration 10000 nM, partner drug concentration 0.1 nM
[18] = carboplatin concentration 10000 nM, partner drug concentration 1 nM
[19] = carboplatin concentration 10000 nM, partner drug concentration 10 nM
[20] = carboplatin concentration 10000 nM, partner drug concentration 100 nM
[21] = carboplatin concentration 10000 nM, partner drug concentration 1000 nM
[22] = carboplatin concentration 100000 nM, partner drug concentration 0 nM
[23] = carboplatin concentration 100000 nM, partner drug concentration 0.1 nM
[24] = carboplatin concentration 100000 nM, partner drug concentration 1 nM
[25] = carboplatin concentration 100000 nM, partner drug concentration 10 nM
[26] = carboplatin concentration 100000 nM, partner drug concentration 100 nM
[27] = carboplatin concentration 100000 nM, partner drug concentration 1000 nM

For O=C(O)C1(C(=O)O)CCC1.[NH2-].[NH2-].[Pt+2] [Carboplatin] + CC[C@H](NC(=O)[C@H](C)NC)C(=O)N1C[C@@H](O)C[C@H]1Cc1c(-c2[nH]c3cc(F)ccc3c2C[C@@H]2C[C@H](O)CN2C(=O)[C@H](CC)NC(=O)[C@H](C)NC)[nH]c2cc(F)ccc12 [Birinapant], the cell viability (Gem015; [1]) was 100%, the cell viability (Gem015; [2]) was 93.1% and the cell viability (Gem015; [3]) was 93.5%. For the same compound, the cell viability (Gem015; [4]) was 82%, the cell viability (Gem015; [5]) was 55.1% and the cell viability (Gem015; [6]) was 98.5%. It also gave a cell viability (Gem015; [7]) of 90%, a cell viability (Gem015; [8]) of 101% and a cell viability (Gem015; [9]) of 77%. The cell viability (Gem015; [10]) was 67.2%, the cell viability (Gem015; [11]) was 103% and the cell viability (Gem015; [12]) was 89.1%. The cell viability (Gem015; [13]) was 81.6%, the cell viability (Gem015; [14]) was 85.2% and the cell viability (Gem015; [15]) was 59.3%. The cell viability (Gem015; [16]) was 91.1%, the cell viability (Gem015; [17]) was 73.5% and the cell viability (Gem015; [18]) was 97.6%. The cell viability (Gem015; [19]) was 89.5%, the cell viability (Gem015; [20]) was 84.6% and the cell viability (Gem015; [21]) was 59%. The cell viability (Gem015; [22]) was 61.2%, the cell viability (Gem015; [23]) was 58.2% and the cell viability (Gem015; [24]) was 75.8%. For the same compound, the cell viability (Gem015; [25]) was 73.6%, the cell viability (Gem015; [26]) was 58.7% and the cell viability (Gem015; [27]) was 39.9%. For the same compound, the cell viability (Gem031; [1]) was 93%, the cell viability (Gem031; [2]) was 91.2% and the cell viability (Gem031; [3]) was 96%. The cell viability (Gem031; [4]) was 55.3%, the cell viability (Gem031; [5]) was 25.3% and the cell viability (Gem031; [6]) was 98.1%. The cell viability (Gem031; [7]) was 92.1%, the cell viability (Gem031; [8]) was 88.6% and the cell viability (Gem031; [9]) was 61.2%. It also gave a cell viability (Gem031; [10]) of 26.3%, a cell viability (Gem031; [11]) of 98.6% and a cell viability (Gem031; [12]) of 91.8%. For the same compound, the cell viability (Gem031; [13]) was 93.6%, the cell viability (Gem031; [14]) was 56.8% and the cell viability (Gem031; [15]) was 24.8%. It also gave a cell viability (Gem031; [16]) of 79.2%, a cell viability (Gem031; [17]) of 87% and a cell viability (Gem031; [18]) of 97.5%. The cell viability (Gem031; [19]) was 77.6%, the cell viability (Gem031; [20]) was 46.3% and the cell viability (Gem031; [21]) was 15.5%. It also gave a cell viability (Gem031; [22]) of 26.3%, a cell viability (Gem031; [23]) of 26.1% and a cell viability (Gem031; [24]) of 27.6%. The cell viability (Gem031; [25]) was 22.9%, the cell viability (Gem031; [26]) was 11.4% and the cell viability (Gem031; [27]) was 3.6%. The cell viability (Gem059; [1]) was 109%, the cell viability (Gem059; [2]) was 101% and the cell viability (Gem059; [3]) was 119%. For the same compound, the cell viability (Gem059; [4]) was 105%, the cell viability (Gem059; [5]) was 102% and the cell viability (Gem059; [6]) was 99.2%. It also gave a cell viability (Gem059; [7]) of 99.2%, a cell viability (Gem059; [8]) of 122% and a cell viability (Gem059; [9]) of 97.4%. For the same compound, the cell viability (Gem059; [10]) was 106%, the cell viability (Gem059; [11]) was 89.4% and the cell viability (Gem059; [12]) was 109%. It also gave a cell viability (Gem059; [13]) of 117%, a cell viability (Gem059; [14]) of 106% and a cell viability (Gem059; [15]) of 118%. For the same compound, the cell viability (Gem059; [16]) was 100%, the cell viability (Gem059; [17]) was 102% and the cell viability (Gem059; [18]) was 99.8%. The cell viability (Gem059; [19]) was 97.5%, the cell viability (Gem059; [20]) was 112% and the cell viability (Gem059; [21]) was 99%. It also gave a cell viability (Gem059; [22]) of 77.4%, a cell viability (Gem059; [23]) of 82.5% and a cell viability (Gem059; [24]) of 97.3%. The cell viability (Gem059; [25]) was 79.6%, the cell viability (Gem059; [26]) was 85.4% and the cell viability (Gem059; [27]) was 90.7%. The cell viability (Gem105; [1]) was 102%, the cell viability (Gem105; [2]) was 90.8% and the cell viability (Gem105; [3]) was 94.9%. For the same compound, the cell viability (Gem105; [4]) was 105%, the cell viability (Gem105; [5]) was 72.5% and the cell viability (Gem105; [6]) was 102%. The cell viability (Gem105; [7]) was 82%, the cell viability (Gem105; [8]) was 100% and the cell viability (Gem105; [9]) was 89.4%. It also gave a cell viability (Gem105; [10]) of 79.4%, a cell viability (Gem105; [11]) of 110% and a cell viability (Gem105; [12]) of 89.4%. The cell viability (Gem105; [13]) was 109%, the cell viability (Gem105; [14]) was 89.2% and the cell viability (Gem105; [15]) was 87.6%. It also gave a cell viability (Gem105; [16]) of 91.9%, a cell viability (Gem105; [17]) of 97.7% and a cell viability (Gem105; [18]) of 83.8%. The cell viability (Gem105; [19]) was 92.5%, the cell viability (Gem105; [20]) was 80% and the cell viability (Gem105; [21]) was 81.6%. It also gave a cell viability (Gem105; [22]) of 38.7%, a cell viability (Gem105; [23]) of 41.1% and a cell viability (Gem105; [24]) of 51.4%. It also gave a cell viability (Gem105; [25]) of 42.1%, a cell viability (Gem105; [26]) of 30.3% and a cell viability (Gem105; [27]) of 27.6%. It also gave a cell viability (Gem129; [1]) of 105%, a cell viability (Gem129; [2]) of 82.3% and a cell viability (Gem129; [3]) of 101%. The cell viability (Gem129; [4]) was 87.1%, the cell viability (Gem129; [5]) was 76.2% and the cell viability (Gem129; [6]) was 94.9%. The cell viability (Gem129; [7]) was 97.3%, the cell viability (Gem129; [8]) was 96% and the cell viability (Gem129; [9]) was 89.5%. For the same compound, the cell viability (Gem129; [10]) was 96.1%, the cell viability (Gem129; [11]) was 96.4% and the cell viability (Gem129; [12]) was 100%. For the same compound, the cell viability (Gem129; [13]) was 92.5%, the cell viability (Gem129; [14]) was 86.2% and the cell viability (Gem129; [15]) was 73.2%. The cell viability (Gem129; [16]) was 80.4%, the cell viability (Gem129; [17]) was 86.7% and the cell viability (Gem129; [18]) was 95.8%. It also gave a cell viability (Gem129; [19]) of 86.7%, a cell viability (Gem129; [20]) of 90.5% and a cell viability (Gem129; [21]) of 67.4%. It also gave a cell viability (Gem129; [22]) of 57.5%, a cell viability (Gem129; [23]) of 57.3% and a cell viability (Gem129; [24]) of 31.2%. The cell viability (Gem129; [25]) was 29.8%, the cell viability (Gem129; [26]) was 27.8% and the cell viability (Gem129; [27]) was 19.6%.
